Measured values taken from ChEMBL document CHEMBL1201862, “PubChem BioAssay data set” (2004).
Blank lines part the entries; values can stand above or below the molecule they belong to. Activity calls are given as the source filed them.

Tests used:
[1] = viability inhibitors of stage V gametocytes – luminescence, dose response (AID 1117278); format: functional, cell-based;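 further: gametocytes exposed to compound for 24 hours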
[2] = viability loss in human Jurkat cells – cell-based, luminescence, cytotoxicity control for P. falciparum gametocyte viability project, dose response (AID 1117277); format: functional;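 further: potency reflects loss of cellular ATP meaning fewer viable cells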
[3] = Luminescence-based cell-based high throughput dose response assay to identify activators of the DAF-12 from the parasite S. stercoralis (ssDAF-12).; format: functional
[4] = target: T1, Oxysterols receptor LXR-beta (Homo sapiens, UniProt P55055); test: LXR agonists, Gal4 luciferase reporter, dose response, counter-screen for ssDAF-12 agonist project, cell-based, luminescence, HEK293, S. stercoralis campaign (AID 720737); format: functional; conditions: read-out: IC50 (the source's name)
T1 sequence (P55055 whole entry): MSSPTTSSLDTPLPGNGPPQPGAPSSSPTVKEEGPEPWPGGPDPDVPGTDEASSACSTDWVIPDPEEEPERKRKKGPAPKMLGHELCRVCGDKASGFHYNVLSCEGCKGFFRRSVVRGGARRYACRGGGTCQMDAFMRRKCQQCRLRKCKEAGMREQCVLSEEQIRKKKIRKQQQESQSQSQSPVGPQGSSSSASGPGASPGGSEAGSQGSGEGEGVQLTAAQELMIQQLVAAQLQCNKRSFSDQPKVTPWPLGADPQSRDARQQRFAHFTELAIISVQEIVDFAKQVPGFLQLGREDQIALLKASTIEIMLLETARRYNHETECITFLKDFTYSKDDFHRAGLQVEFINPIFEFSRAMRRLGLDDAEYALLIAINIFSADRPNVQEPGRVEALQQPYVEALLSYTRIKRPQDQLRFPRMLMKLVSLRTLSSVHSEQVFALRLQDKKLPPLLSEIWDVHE

[5] = viability of PTEN-deleted HCT116 cells – cell-based, HCT116 PTEN knockout, dose response (AID 1047); format: functional;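 further: HCT116 colon tumor cells with PTEN knocked out; cells exposed to compound for 60 hours before readout; potency for loss of cell viability measured by luminescence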
[6] = viability of HCT116 lacking mutant beta-catenin – cell-based, human colon tumor, dose response (AID 1045); format: functional;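 further: HCT116 colon tumor cells with beta catenin knocked out; cells exposed to compound for 60 hours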
[7] = IC50 of Artemis nuclease activity blockers – biochemical, fluorescence intensity, dose response (AID 720701); format: functional;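 further: Artemis endonuclease enzyme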
[8] = viability loss in Vero cells – cytotoxicity control for Vif-APOBEC3G degradation inhibitor project, dose response (AID 1117358); format: functional; conditions: Vero
[9] = target: Protein Tat (Human immunodeficiency virus type 1 group M subtype B (isolate HXB2)(HIV-1), UniProt P04608); format: functional;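 further: tat binding to TAR RNA read out by fluorescence polarization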
[10] = HIV-1 Vif–A3G interaction blockers – biochemical, TR-FRET, GST-Vif 1-94, biotin-A3G peptide, dose response retest, primary screen (AID 1117319); format: functional;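 further: TR-FRET signal of purified GST-Vif binding a biotinylated A3G peptide; inhibitors lower the FRET signal by blocking Vif and A3G binding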
[11] = target: NAD-dependent protein deacylase sirtuin-5, mitochondrial (Homo sapiens, UniProt Q9NXA8); test: blockers of sirtuin-5 peptide desuccinylation – biochemical, fluorescence imaging, cherry-pick, set 6, dose response (AID 720597)
[12] = viability loss in THP-1 monocytes – THP-1 cells, cytotoxicity control for Vif-APOBEC3G degradation inhibitor project, dose response (AID 1117359); format: functional; conditions: THP-1
[13] = activation of miR-122 Renilla sensor silencing – cell-based, Huh7 psiCHECK-miR122, Renilla luciferase, cherry-picked, dose response (AID 651956); format: functional;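 further: huh7 hepatoma cells stably carrying a psiCHECK-2 miR-122 sensor plasmid; renilla luciferase signal reporting endogenous miR-122 activity after 48 h compound exposure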
[14] = cytotoxicity in HEK293 background cells – cell-based, dry powder, set 2, counter-screen for EBV LMP1 inhibitor project, dose response (AID 624374); format: functional
[15] = target: Paired box protein Pax-8 (Homo sapiens, UniProt Q06710); test: PAX8 transcriptional activity inhibition in RMG-I – RMG-I cells, luciferase, cherry-pick, dose response (AID 687027); format: functional, cell-based;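 further: luciferase reporter driven by Pax8 target thyroperoxidase promoter measured by SteadyGlo luminescence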
[16] = inhibitors acting on PAX2 in cells – cell-based, plate reader, dry powder samples, selectivity assay for PAX8 inhibitor project, dose response (AID 743048); format: functional;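 further: HEK293 cells carrying a WT1 promoter luciferase reporter driven by expressed Pax2; potency is for inhibition of Pax2 driven reporter signal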
[17] = viability loss in A549 lung cells – cell-based, 24 h, CellTiter-Glo luminescence, cherry-picks, cytotoxicity control, dose response (AID 1053115); format: functional; conditions: A549, 24 h
[18] = PAX5 cellular inhibition readout – cell-based, plate reader, dry powder samples, selectivity assay for PAX8 inhibitor project, dose response (AID 743047); format: functional;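 further: HEK293 cells carrying a Pax5 driven CD19 promoter luciferase reporter; potency of inhibitors that lower reporter luminescence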
[19] = general mammalian cell viability loss – inhibitor set, cherry-pick, set 2, cytotoxicity control for miR-122 modulator project, dose response (AID 720697); format: functional, cell-based
[20] = OV-90 cell viability loss – plate reader, dry powder, SA8, PAX8 inhibitor project, dose response (AID 743149); format: functional, cell-based
[21] = PAX8-dependent cell viability loss – plate reader, dry powder, dose response (AID 743049); format: functional, cell-based
[22] = lung carcinoma cell viability loss – CellTiter-Glo luminescence, dry powder, set 17, dose response (AID 1117284); format: functional, cell-based; conditions: A549
[23] = A2780 cell killing – plate reader, dry powder samples, cytotoxicity control, dose response (AID 743046); format: functional, cell-based
[24] = OVCAR-3 cell viability loss – plate reader, dry powder samples, PAX8 inhibitor project, dose response (AID 743044); format: functional, cell-based
[25] = IGROV1 cell killing – plate reader, dry powder samples, PAX8 inhibitor project, dose response (AID 743043); format: functional, cell-based; conditions: IGROV-1
[26] = general cell-killing toxicity readout – plate reader, dry powder samples, cytotoxicity control for PAX8 inhibitor project, dose response (AID 743021); format: functional, cell-based
[27] = OVCAR8 cell viability loss – plate reader, dry powder samples, PAX8 project, dose response (AID 743197); format: functional, cell-based; conditions: OVCAR-8

Paired box protein Pax-8, sequence (Q06710 whole entry): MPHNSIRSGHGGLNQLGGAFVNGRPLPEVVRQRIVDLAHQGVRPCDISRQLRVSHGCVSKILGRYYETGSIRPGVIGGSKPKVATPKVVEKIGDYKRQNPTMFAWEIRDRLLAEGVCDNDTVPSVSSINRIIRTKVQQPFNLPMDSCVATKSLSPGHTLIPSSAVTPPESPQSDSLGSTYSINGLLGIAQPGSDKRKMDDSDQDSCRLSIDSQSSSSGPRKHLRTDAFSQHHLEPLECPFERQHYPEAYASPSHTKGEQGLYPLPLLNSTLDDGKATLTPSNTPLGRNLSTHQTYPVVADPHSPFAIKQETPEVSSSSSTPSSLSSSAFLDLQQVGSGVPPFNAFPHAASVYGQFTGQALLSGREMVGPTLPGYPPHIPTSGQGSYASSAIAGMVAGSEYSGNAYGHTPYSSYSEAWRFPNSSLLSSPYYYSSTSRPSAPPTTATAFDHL
Protein Tat, sequence (P04608 whole entry): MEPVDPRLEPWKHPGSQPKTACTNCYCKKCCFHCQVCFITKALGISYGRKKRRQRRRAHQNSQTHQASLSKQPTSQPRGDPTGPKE
NAD-dependent protein deacylase sirtuin-5, mitochondrial, sequence (Q9NXA8 whole entry): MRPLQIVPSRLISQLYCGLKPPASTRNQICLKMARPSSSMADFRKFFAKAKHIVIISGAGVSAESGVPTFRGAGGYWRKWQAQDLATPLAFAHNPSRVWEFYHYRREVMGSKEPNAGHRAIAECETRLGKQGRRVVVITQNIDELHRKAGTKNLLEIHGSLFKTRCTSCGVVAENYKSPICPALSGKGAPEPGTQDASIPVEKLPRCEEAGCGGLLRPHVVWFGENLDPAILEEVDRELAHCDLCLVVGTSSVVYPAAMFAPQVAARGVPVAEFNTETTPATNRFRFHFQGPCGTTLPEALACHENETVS

SMILES: COc1ccccc1OCCOCCOc1ccccc1Cl
IC50 [1]: > 109 µM (inactive)
IC50 [2]: > 83.3 µM (inactive)

SMILES: O=C(CCn1c(=S)oc2ccccc21)NC1CCCCC1
IC50 [3]: > 67.6 µM (inactive)
EC50 [4]: > 67.6 µM (inactive)

SMILES: COc1ccc(Nc2nc(Nc3ccc(OC)cc3)nc(SC3=NCCS3)n2)cc1
EC50 [5]: 40.1 µM (active)
EC50 [6]: 71.1 µM (active)
IC50 [7]: 1.68 µM (active)

SMILES: Cc1ccc(C)c(S(=O)(=O)Nc2ccccc2C(=O)Nc2ccccc2N2CCOCC2)c1
CC50 [8]: > 40 µM (active)

IC50 [9]: 16.3 µM (inconclusive)
IC50 [10]: > 50.6 µM (active)
SMILES: CCOc1ccccc1N1C(=O)CC(Nc2ccc(N3CCOCC3)cc2)C1=O (stereo not drawn)

AC50 [11]: 12.2 µM (active)
SMILES: Cc1noc(C)c1S(=O)(=O)Nc1ccc2c(c1)C(=O)N([C@@H](C)CO)C[C@H](C)[C@@H](CN(C)Cc1ccc(C(F)(F)F)cc1)OCCCC[C@H](C)O2
CC50 [12]: 16.7 µM (active)

SMILES: C[C@@H]1CN([C@@H](C)CO)S(=O)(=O)c2ccc(C#C[C@@H](C)O)cc2O[C@H]1CN(C)Cc1ccc(-c2ccccc2)cc1
AC50 [13]: 20.3 µM (active)
AbsAC35 [14]: 211.64 µM
AC50 [15]: 6.61 µM (active)
AC50 [16]: > 70 µM (inactive)
AC50 [17]: 53.4 µM (active)
AC50 [18]: 41.3 µM (active)
AC50 [19]: 8.22 µM (active)
AC50 [20]: 17.7 µM (active)
AC50 [21]: > 70 µM (inactive)
AC50 [22]: 46.1 µM (active)

SMILES: C[C@@H]1CN([C@H](C)CO)C(=O)c2cc(NC(=O)Nc3ccc(C(F)(F)F)cc3)ccc2O[C@@H](C)CCCCO[C@@H]1CN(C)Cc1ccccc1
AC50 [15]: 6.4 µM (active)
AC50 [23]: 22.3 µM (active)
AC50 [24]: 23 µM (active)
AC50 [25]: 40.2 µM (active)
AC50 [26]: 68 µM (active)
AC50 [27]: 21.5 µM (active)
